In US11840686B2, “Modulation of prekallikrein (PKK) expression” (Ionis Pharmaceuticals, Inc., priority 2013, dated 2023):
Strand notation (5' to 3'): a small letter for the sugar, then the base; units joined by * are phosphorothioate-linked, units joined directly phosphodiester-linked; [ ] holds rarer units or linkages, { } end groups; capitals alone tell only the bases. e = 2'-O-(2-methoxyethyl) (MOE); k = constrained ethyl (cEt); [5mC] = 5-methylcytosine; d = 2'-deoxy (DNA)

Test system: human PKK mRNA
Assay: Antisense inhibition of human PKK mRNA in HepaRG cells, 1,000 nM, MOE/deoxy/cEt oligonucleotides (Example 3)
Assay type: cell-based
Summary of the method: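 HepaRG cells at 20,000 per well electroporated with 1,000 nM 16-mer MOE/cEt/deoxy gapmers (phosphorothioate, 5-methylcytosine). After about 24 h, PKK mRNA measured by qRT-PCR with primer probe set RTS3454, normalized to RIBOGREEN total RNA. Reported as percent inhibition versus untreated cells.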

[1] = Table 19, HepaRG cells, electroporation with 1,000 nM antisense oligonucleotide, approximately 24 hours, PKK mRNA by RT-PCR (RTS3454), relative to untreated control cells
[2] = HepaRG cells, electroporation with 1,000 nM antisense oligonucleotide, approx. 24 hours, PKK mRNA by RT-PCR (RTS3454), relative to untreated control cells, Table 25 experiment
[3] = Table 21 experiment, HepaRG cells, electroporation with 1,000 nM antisense oligonucleotide, approx. 24 hours, PKK mRNA by RT-PCR (RTS3454), relative to untreated control cells
[4] = HepaRG cells, electroporation with 1,000 nM antisense oligonucleotide, approx. 24 hours, PKK mRNA by RT-PCR (RTS3454), relative to untreated control cells, Table 26 experiment
[5] = Table 20, HepaRG cells, electroporation with 1,000 nM antisense oligonucleotide, approximately 24 hours, PKK mRNA by RT-PCR (RTS3454), relative to untreated control cells
[6] = Table 22 experiment, HepaRG cells, electroporation with 1,000 nM antisense oligonucleotide, approx. 24 hours, PKK mRNA by RT-PCR (RTS3454), relative to untreated control cells

548658 (antisense eG*eA*kA*dG*dT*dT*d[5mC]*d[5mC]*dT*dG*dT*dG*dT*k[5mC]*kT*eT) [compound 548658]
% inhibition (PKK mRNA, HepaRG cells, 1,000 nM antisense oligonucleotide, Table 31): 11%

548140 (e[5mC]*eA*kG*dA*dT*dG*dA*dG*dG*dA*d[5mC]*d[5mC]*d[5mC]*k[5mC]*k[5mC]*e[5mC]; antisense) [compound 548140]
% inhibition [1]: 74%

548171 (e[5mC]*eA*kG*dT*dT*dG*d[5mC]*dG*dA*d[5mC]*d[5mC]*dT*d[5mC]*kG*k[5mC]*eA; antisense) [compound 548171]
% inhibition [2]: 47%

547797 (antisense eA*eG*k[5mC]*dT*dA*d[5mC]*dA*dT*d[5mC]*d[5mC]*d[5mC]*d[5mC]*dA*k[5mC]*k[5mC]*eT) [compound 547797]
% inhibition [3]: 33%

548392 (eG*eT*kA*dG*dA*dG*d[5mC]*dA*dT*dG*dG*dA*dG*k[5mC]*kG*eA; antisense) [compound 548392]
% inhibition (Table 30, human PKK mRNA, HepaRG cells, 1,000 nM antisense oligonucleotide): 31%

548252 (antisense eA*e[5mC]*kT*d[5mC]*dG*d[5mC]*d[5mC]*dT*dT*dT*dG*dT*dG*kA*kT*eG) [compound 548252]
% inhibition [4]: 33%

547908 (e[5mC]*eA*kA*dT*dT*dT*d[5mC]*dT*dG*dA*dA*dA*dG*kG*kG*e[5mC]; antisense) [compound 547908]
% inhibition [5]: 94% | % inhibition [6]: 71%

548315 (eG*eT*kT*dG*dT*d[5mC]*dA*dA*d[5mC]*dT*dG*dG*dG*kA*k[5mC]*e[5mC]; antisense) [compound 548315]
% inhibition (Table 27, HepaRG cells, 1,000 nM antisense oligonucleotide, human PKK mRNA): 14%

548515 (antisense eA*e[5mC]*k[5mC]*d[5mC]*dG*dT*d[5mC]*dA*dG*d[5mC]*d[5mC]*dT*d[5mC]*kA*kG*e[5mC]) [compound 548515]
% inhibition (Table 28, HepaRG cells, 1,000 nM antisense oligonucleotide, human PKK mRNA): 59%

547867 (antisense e[5mC]*e[5mC]*kT*dT*dA*dG*dA*d[5mC]*dA*d[5mC]*dA*dT*dT*kA*kA*eA) [compound 547867]
% inhibition [5]: 34% | % inhibition [6]: 53%

547917 (eA*e[5mC]*k[5mC]*d[5mC]*dT*dG*dG*d[5mC]*dA*dA*d[5mC]*dA*dT*k[5mC]*k[5mC]*eA; antisense) [compound 547917]
% inhibition [5]: 33% | % inhibition [6]: 54%

548253 (antisense eT*eA*k[5mC]*dT*d[5mC]*dG*d[5mC]*d[5mC]*dT*dT*dT*dG*dT*kG*kA*eT) [compound 548253]
% inhibition [4]: 8%

548233 (eA*eT*kT*dG*dT*dA*dG*d[5mC]*d[5mC]*dA*dT*dA*d[5mC]*kA*kT*e[5mC]; antisense) [compound 548233]
% inhibition [4]: 38%

547866 (antisense eT*eT*kA*dA*dA*dA*dT*dT*dG*dA*d[5mC]*dT*d[5mC]*k[5mC]*kT*e[5mC]) [compound 547866]
% inhibition [5]: 46% | % inhibition [6]: 40%

547863 (antisense eT*eG*kA*d[5mC]*dT*d[5mC]*d[5mC]*dT*d[5mC]*dT*d[5mC]*dA*dT*kA*kT*e[5mC]) [compound 547863]
% inhibition [5]: 73% | % inhibition [6]: 77%

547790 (antisense eT*eG*kA*dA*dA*dT*dA*dA*dG*dT*dT*dG*d[5mC]*kT*kT*eG) [compound 547790]
% inhibition [3]: 23%

548177 (eA*eG*kA*dT*d[5mC]*dT*d[5mC]*dA*dG*dT*dT*dG*d[5mC]*kG*kA*e[5mC]; antisense) [compound 548177]
% inhibition [2]: 45%

548271 (antisense eT*eT*k[5mC]*dA*d[5mC]*dT*dT*dA*d[5mC]*d[5mC]*dA*d[5mC]*dA*kG*kG*eA) [compound 548271]
% inhibition [4]: 56%

547976 (antisense e[5mC]*e[5mC]*kA*dA*dA*dG*dT*d[5mC]*dA*dA*d[5mC]*dT*d[5mC]*k[5mC]*k[5mC]*eG) [compound 547976]
% inhibition (HepaRG cells, electroporation with 1,000 nM antisense oligonucleotide, approximately 24 hours, primer probe set RTS3454, relative to untreated control cells, experiment of Table 23): 49%

548086 (antisense e[5mC]*eT*kA*dA*dG*dG*dG*dA*d[5mC]*d[5mC]*dA*d[5mC]*d[5mC]*kT*kG*eA) [compound 548086]
% inhibition [1]: 36%

547873 (antisense e[5mC]*eT*kG*d[5mC]*dT*dA*dA*d[5mC]*d[5mC]*dT*dT*dA*dG*kA*k[5mC]*eA) [compound 547873]
% inhibition [5]: 77% | % inhibition [6]: 82%
